According to ChEMBL document CHEMBL3244418, “Synthesis and central nervous system activity of quinazolones related to 2-methyl-3-(o-tolyl)-4(3H)-quinazolone (methaqualone)” (J Med Chem, 1977):

Assays:
Assay type in all cases: functional
Mus musculus [1] = test: Hypnotic activity in ip dosed CFLP mouse assessed as loss of righting reflex
Mus musculus [2] = test: Hypnotic activity in ip dosed CFLP mouse after 30 mins by rotary drum test; details: 0.5 h
Mus musculus [3] = test: Anticonvulsant activity in ip dosed CFLP mouse assessed as inhibition of maximum electroshock-induced seizure
Mus musculus [4] = test: Anticonvulsant activity in ip dosed CFLP mouse assessed as inhibition of pentylenetetrazole-induced seizure
Mus musculus [5] = test: […] activity in po dosed CFLP mouse assessed as inhibition of benzoquinone-induced writhing

| SMILES | ED50 (Mus musculus [1]) | ED50 (Mus musculus [2]) | ED50 (Mus musculus [3]) | ED50 (Mus musculus [4]) | ED50 (Mus musculus [5]) |
| --- | --- | --- | --- | --- | --- |
| Br.N=C(N)SCc1nc2ccccc2c(=O)n1-c1ccccc1 | 200 mg/kg | 42 mg/kg | 53 mg/kg | > 50 mg/kg | – |
| Br.N=C(N)SCc1nc2ccccc2c(=O)n1-c1ccccc1Cl | 200 mg/kg | – | – | – | 90 mg/kg |
| Cc1ccccc1-n1c(CBr)nc2ccccc2c1=O | > 200 mg/kg | > 200 mg/kg | > 200 mg/kg | – | > 150 mg/kg |
| Cc1ccccc1-n1c(CF)nc2ccccc2c1=O.Cl | 75 mg/kg | 18 mg/kg | 14.5 mg/kg | 16 mg/kg | – |
| Cc1ccccc1-n1c(CI)nc2ccccc2c1=O | > 400 mg/kg | > 200 mg/kg | > 200 mg/kg | – | – |
| Cc1ccccc1-n1c(C(F)F)nc2ccccc2c1=O | > 400 mg/kg | 100 mg/kg | > 100 mg/kg | 50 mg/kg | – |
| Cc1ccccc1-n1c(C(Br)Br)nc2ccccc2c1=O | > 800 mg/kg | > 200 mg/kg | > 200 mg/kg | > 200 mg/kg | > 400 mg/kg |
| Cc1ccccc1-n1c(C(F)(F)F)nc2ccccc2c1=O | > 400 mg/kg | > 200 mg/kg | > 200 mg/kg | > 200 mg/kg | > 200 mg/kg |
| COCc1nc2ccccc2c(=O)n1-c1ccccc1C | 300 mg/kg | 22 mg/kg | 26 mg/kg | 100 mg/kg | 100 mg/kg |
| CCOCc1nc2ccccc2c(=O)n1-c1ccccc1C | 300 mg/kg | 27 mg/kg | 64 mg/kg | – | > 200 mg/kg |
| CCCOCc1nc2ccccc2c(=O)n1-c1ccccc1C | > 400 mg/kg | – | > 200 mg/kg | 150 mg/kg | > 200 mg/kg |
| CCCCOCc1nc2ccccc2c(=O)n1-c1ccccc1C | > 400 mg/kg | 88 mg/kg | 120 mg/kg | – | > 200 mg/kg |
| Cc1ccccc1-n1c(CO)nc2ccccc2c1=O | > 400 mg/kg | 56 mg/kg | 135 mg/kg | 70 mg/kg | > 200 mg/kg |
| CC(=O)OCc1nc2ccccc2c(=O)n1-c1ccccc1C | > 400 mg/kg | 155 mg/kg | 120 mg/kg | 150 mg/kg | 200 mg/kg |
| Cc1ccccc1-n1c(COC(=O)CCC(=O)O)nc2ccccc2c1=O | > 400 mg/kg | > 200 mg/kg | > 200 mg/kg | 150 mg/kg | > 200 mg/kg |
| CCCSCc1nc2ccccc2c(=O)n1-c1ccccc1C | > 800 mg/kg | 100 mg/kg | 160 mg/kg | 70 mg/kg | > 200 mg/kg |
| Cc1ccccc1-n1c(CSC(N)=O)nc2ccccc2c1=O | 400 mg/kg | 200 mg/kg | 120 mg/kg | 56 mg/kg | > 200 mg/kg |
| Cc1ccccc1-n1c(CSC(N)=O)nc2ccccc2c1=O.Cl | 35 mg/kg | 19 mg/kg | 34 mg/kg | – | 200 mg/kg |
| Cc1ccccc1-n1c(CSS(=O)(=O)O)nc2ccccc2c1=O | 150 mg/kg | 44 mg/kg | 82 mg/kg | 39 mg/kg | > 200 mg/kg |
| Br.Cc1ccccc1-n1c(CSC(=N)N)nc2ccccc2c1=O | 56 mg/kg | 35 mg/kg | 65 mg/kg | 28 mg/kg | > 50 mg/kg |
